Measurements published in patent US20240307484A1 (priority 2023, published 2024).
Where two headings read alike, the source gives them in different places. Numbered stars: 1 amine (or outer) side, 2 acyl side, 3 side chain; on linkers, the order of the positions; unused ones are H or OH. Bridge positions count the residues as written; N and C are the ends. Square brackets hold non-standard residues; d marks the D form. Peptide text beside a SMILES is read from it. I, II: the chains in the order shown. Actinocin(9to1) = Cc1c2oc3c(C)ccc(C(=O)[*:1])c3nc-2c(C(=O)[*:2])c(N)c1=O; NMeV = CN[C@H](C(=O)O)C(C)C; Sar = CNCC(=O)O

Experiments:
[1] = tested on: 4T1 breast cancer mouse models; experiment: Metastasis test in 4T1 breast cancer mouse models; assay type: in vivo; conditions: 4T1 mouse model; five weeks, treated every 7 days; cyclophosphamide 5 mg/kg, doxorubicin 0.5 mg/kg, actinomycin D 20 μg/kg
Description: 4T1 breast cancer mouse models were created based on common knowledge in the art. The test lasted for five weeks, and the mice in each of the following groups were treated on the 0th, 7th, 14th, 21st, 28th, and 35th day of the test: • Group 1: Without any treatment; • Group 2: With cyclophosphamide administered at a dose of 5 mg/kg: • Group 3: With both cyclophosphamide and doxorubicin administered, the dose of cyclophosphamide being 5 mg/kg, and the dose of doxorubicin being 0.5 mg/kg (equivalent to a clinical dose of 20 mg/m^2 for humans); • Group 4: With actinomycin D administered at a dose of 20 μg/kg (equivalent to a clinical dose of […] for humans); • Group 5: With doxorubicin administered at a dose of 0.5 mg/kg: • Group 6: With both actinomycin D (20 μg/kg) and doxorubicin (0.5 mg/kg) administered; and • Group 7: With both actinomycin D (10 μg/kg) and doxorubicin (0.25 mg/kg) administered, the doses being 0.5 times as high as those for group 6.
Once the test was completed, the mice in each group were sacrificed, and the numbers of breast tumors that had metastasized to the lungs and to the liver (i.e., lung metastatic nodules and liver metastatic nodules) of each group of mice were counted. In addition, lungs and livers were collected from the mice, sectioned, and then stained with hematoxylin and eosin (H&E) stain, as shown in FIG. 20.

[2] = tested on: MCF-7 cells; experiment: Cytotoxicity / synergistic cytotoxic effect test in MCF-7 cells; assay type: cell-based
From the text: (§1) The cell lines used in the following examples, namely the MDA-MB-231 (human triple-negative breast cancer) cell line, the 4T1 (mouse triple-negative breast cancer) cell line, and the MCF-7 (breast cancer) cell line, are easily obtainable by a person with common knowledge in the art and therefore need not be deposited. The 4T1 cell line is frequently used as a research model for the metastasis of breast cancer and a model for the selection of clinical drugs for breast cancer.
(§2) MDA-MB-231 cells, 4T1 cells, and MCF-7 cells were treated with actinomycin D and doxorubicin in different ratios for 48 hours, before combination indices (CI) were calculated based on cytotoxicity.

[3] = tested on: 4T1 cells; experiment: Cytotoxicity / synergistic cytotoxic effect test in 4T1 cells; assay type: cell-based, mouse
From the text: as §1, §2

[4] = tested on: MDA-MB-231 cells; experiment: Cytotoxicity / synergistic cytotoxic effect test in MDA-MB-231 cells; assay type: cell-based, human
From the text: as §1, §2

[5] = Table 1, MCF-7 cells, read-out: IC50 of various chemotherapy drugs against different cancer cells
[6] = Table 1, 4T1 cells, read-out: IC50 of various chemotherapy drugs against different cancer cells
[7] = Table 1, MDA-MB-231 cells, read-out: IC50 of various chemotherapy drugs against different cancer cells

| SMILES | number of liver metastatic nodules [1] | number of lung metastatic nodules [1] | IC50 [2, 5] | IC50 [3, 6] | IC50 [4, 7] | other results |
| --- | --- | --- | --- | --- | --- | --- |
| COc1cccc2c1C(=O)c1c(O)c3c(c(O)c1C2=O)C[C@@](O)(C(=O)CO)C[C@@H]3O[C@H]1C[C@H](N)[C@H](O)[C@H](C)O1 [Doxorubicin, doxorubicin] | significantly less liver metastatic nodules than group-1 mice | approximately the same number of lung metastatic nodules as group-3 mice |  |  |  | IC50 ([2]; Homo sapiens, MCF7, Table 1, MCF-7 cells, read-out: IC50 of various chemotherapy drugs against different cancer cells): 4.5 ± 1.7 nM; IC50 ([2]; Homo sapiens, MCF7, Table 2, single drug, MCF-7 cells, 48 hours, read-out: IC50): 323 nM; IC50 ([3]; Mus musculus, Table 1, 4T1 cells, read-out: IC50 of various chemotherapy drugs against different cancer cells): 2.8 ± 1.1 nM; IC50 ([3]; Mus musculus, Table 2, single drug, 4T1 cells, 48 hours, read-out: IC50): 579 nM; IC50 ([4]; Homo sapiens, Table 1, MDA-MB-231 cells, read-out: IC50 of various chemotherapy drugs against different cancer cells): 6.5 ± 0.9 nM; IC50 ([4]; Homo sapiens, Table 2, single drug, MDA-MB-231 cells, 48 hours, read-out: IC50): 1270 nM |
| O=P1(N(CCCl)CCCl)NCCCO1 (stereo not drawn) [cyclophosphamide] | reduced only slightly | reduced only slightly |  |  |  |  |
| O=c1[nH]cc(F)c(=O)[nH]1 [5FU] |  |  | 38300 ± 5000 nM | 5900 ± 300 nM | > 100000 nM |  |
| N.N.[Cl][Pt][Cl] [Cisplatin, cisplatin] |  |  | 19100 ± 2200 nM | 3300 ± 1200 nM | 37200 ± 5100 nM |  |
| Cc1c2oc3c(C)ccc(C(=O)N[C@@H]4C(=O)N[C@H](C(C)C)C(=O)N5CCC[C@H]5C(=O)N(C)CC(=O)N(C)[C@@H](C(C)C)C(=O)O[C@@H]4C)c3nc-2c(C(=O)N[C@@H]2C(=O)N[C@H](C(C)C)C(=O)N3CCC[C@H]3C(=O)N(C)CC(=O)N(C)[C@@H](C(C)C)C(=O)O[C@@H]2C)c(N)c1=O [Actinomycin D, actinomycin D] (I: T[dV]P[Sar][NMeV] / II: T[dV]P[Sar][NMeV]; ester I:1-I:C, II:1-II:C; linker I:N-II:N via Actinocin(9to1)) | increased in comparison with those of group-3 mice | increased in comparison with those of group-3 mice |  |  |  | IC50 ([2]; Homo sapiens, MCF7, 48 h): 3.7 nM; IC50 ([2]; Homo sapiens, MCF7, read-out: IC50 of various chemotherapy drugs against different cancer cells): 300 ± 60 nM; IC50 ([3]; Mus musculus, 4T1, 48 h): 2.6 nM; IC50 ([3]; Mus musculus, 4T1, read-out: IC50 of various chemotherapy drugs against different cancer cells): 500 ± 40 nM; IC50 ([4]; Homo sapiens, MDA-MB-231, 48 h): 3.3 nM; IC50 ([4]; Homo sapiens, MDA-MB-231, read-out: IC50 of various chemotherapy drugs against different cancer cells): 1100 ± 190 nM |
